Results as given in ChEMBL document CHEMBL1141053, “Synthesis and SAR of novel oxazolidinones: discovery of ranbezolid” (2005).
Converted amounts (≈) assume the structure as drawn.

How the values were obtained:
Assay type in all cases: functional
Staphylococcus aureus [1] = experiment: In vitro minimum inhibitory concentration against Staphylococcus aureus ATCC 25923 after incubation in air at 35 degree C for 24 hr using agar dilution method; conditions: ATCC 25923, 24 h
Enterococcus faecalis = experiment: In vitro minimum inhibitory concentration against Enterococcus faecalis ATCC 29212 after incubation in air at 35 degree C for 24 hr using agar dilution method; conditions: ATCC 29212, 24 h
Streptococcus pneumoniae = experiment: In vitro minimum inhibitory concentration against Streptococcus pneumoniae ATCC 6303 after incubation in air at 35 degree C for 24 hr using agar dilution method; conditions: ATCC 6303, 24 h
Enterococcus faecium = experiment: In vitro minimum inhibitory concentration against vancomycin-resistant Enterococcus faecium 6A after incubation in air at 35 degree C for 24 hr using agar dilution method
Staphylococcus aureus [2] = experiment: In vitro minimum inhibitory concentration against methicillin-resistant Staphylococcus aureus 562 after incubation in air at 35 degree C for 24 hr using agar dilution method
Streptococcus pyogenes = experiment: In vitro minimum inhibitory concentration against Streptococcus pyogenes ATCC 19615 after incubation in air at 35 degree C for 24 hr using agar dilution method; conditions: ATCC 19615, 24 h
Staphylococcus aureus [3] = experiment: In vivo effective dose (on day 7-post-infection) against methicillin-resistant Staphylococcus aureus 562 infected mice upon peroral administration at 30 min and 4 hr post-infection; conditions: po

For `CC(=O)NC[C@H]1CN(c2ccc(N3CCC(N(C)c4ccc([N+](=O)[O-])o4)C(C)C3)c(F)c2)C(=O)O1` (stereo partly specified), the MIC (Staphylococcus aureus [1]) was > 16 µg/mL, the MIC (Enterococcus faecalis) was > 16 µg/mL and the MIC (Streptococcus pneumoniae) was > 16 µg/mL. For the same compound, the MIC (Enterococcus faecium) was > 16 µg/mL, the MIC (Staphylococcus aureus [2]) was > 16 µg/mL and the MIC (Streptococcus pyogenes) was > 16 µg/mL.

With `CC(=O)NC[C@H]1CN(c2ccc(N3CCC(Nc4ccc([N+](=O)[O-])o4)CC3)c(F)c2)C(=O)O1` the MIC (Staphylococcus aureus [1]) was 1 µg/mL (≈ 2.17 µM), the MIC (Enterococcus faecalis) was 0.5 µg/mL (≈ 1.08 µM) and the MIC (Streptococcus pneumoniae) was 2 µg/mL (≈ 4.33 µM). For the same compound, the MIC (Enterococcus faecium) was 0.5 µg/mL (≈ 1.08 µM), the MIC (Staphylococcus aureus [2]) was 1 µg/mL (≈ 2.17 µM) and the MIC (Streptococcus pyogenes) was 0.25 µg/mL (≈ 0.542 µM).

For `CC(=O)NC[C@H]1CN(c2ccc(N3CCN(Cc4ccc(CO)o4)CC3)c(F)c2)C(=O)O1`, the MIC (Staphylococcus aureus [1]) was > 16 µg/mL, the MIC (Enterococcus faecalis) was > 16 µg/mL and the MIC (Streptococcus pneumoniae) was > 16 µg/mL. For the same compound, the MIC (Enterococcus faecium) was > 16 µg/mL, the MIC (Staphylococcus aureus [2]) was > 16 µg/mL and the MIC (Streptococcus pyogenes) was > 16 µg/mL.

With `CC(=O)NC[C@H]1CN(c2ccc(N3CCN(Cc4ccc(C)o4)CC3)c(F)c2)C(=O)O1` the MIC (Staphylococcus aureus [1]) was > 16 µg/mL, the MIC (Enterococcus faecalis) was > 16 µg/mL and the MIC (Streptococcus pneumoniae) was > 16 µg/mL. For the same compound, the MIC (Enterococcus faecium) was > 16 µg/mL, the MIC (Staphylococcus aureus [2]) was > 16 µg/mL and the MIC (Streptococcus pyogenes) was > 16 µg/mL.

`CC(=O)NC[C@H]1CN(c2ccc(N3CCN(Cc4ccc(C(=O)O)o4)CC3)c(F)c2)C(=O)O1` was tested, and the MIC (Staphylococcus aureus [1]) was > 16 µg/mL, the MIC (Enterococcus faecalis) was > 16 µg/mL and the MIC (Streptococcus pneumoniae) was > 16 µg/mL. For the same compound, the MIC (Enterococcus faecium) was > 16 µg/mL, the MIC (Staphylococcus aureus [2]) was > 16 µg/mL and the MIC (Streptococcus pyogenes) was > 16 µg/mL.

With `CC(=O)NC[C@H]1CN(c2ccc(N3CCN(Cc4ccc(Cl)o4)CC3)c(F)c2)C(=O)O1` the MIC (Staphylococcus aureus [1]) was > 16 µg/mL, the MIC (Enterococcus faecalis) was > 16 µg/mL and the MIC (Streptococcus pneumoniae) was > 16 µg/mL. For the same compound, the MIC (Enterococcus faecium) was > 16 µg/mL, the MIC (Staphylococcus aureus [2]) was > 16 µg/mL and the MIC (Streptococcus pyogenes) was > 16 µg/mL.

In the case of `CC(=O)NC[C@H]1CN(c2ccc(N3C[C@@H]4[C@H](C3)[C@H]4N(C)c3ccc([N+](=O)[O-])o3)c(F)c2)C(=O)O1`, the MIC (Staphylococcus aureus [1]) is reported as 2 µg/mL (≈ 4.22 µM), the MIC (Enterococcus faecalis) is reported as 1 µg/mL (≈ 2.11 µM) and the MIC (Streptococcus pneumoniae) is reported as 2 µg/mL (≈ 4.22 µM). It also gave an MIC (Enterococcus faecium) of 2 µg/mL (≈ 4.22 µM) and an MIC (Streptococcus pyogenes) of 0.06 µg/mL (≈ 0.127 µM).

For `CC(=O)NC[C@H]1CN(c2ccc(N3CCC(N(C(C)=O)c4ccc([N+](=O)[O-])o4)CC3)c(F)c2)C(=O)O1`, the MIC (Staphylococcus aureus [1]) was > 16 µg/mL, the MIC (Enterococcus faecalis) was > 16 µg/mL and the MIC (Streptococcus pneumoniae) was > 16 µg/mL. The MIC (Enterococcus faecium) was > 16 µg/mL, the MIC (Staphylococcus aureus [2]) was > 16 µg/mL and the MIC (Streptococcus pyogenes) was > 16 µg/mL.

For `CCOC(=O)c1ccc(CN2CCN(c3ccc(N4C[C@H](CNC(C)=O)OC4=O)cc3F)CC2)o1`, the MIC (Staphylococcus aureus [1]) was > 16 µg/mL, the MIC (Enterococcus faecalis) was > 16 µg/mL and the MIC (Streptococcus pneumoniae) was > 16 µg/mL. The MIC (Enterococcus faecium) was > 16 µg/mL, the MIC (Staphylococcus aureus [2]) was > 16 µg/mL and the MIC (Streptococcus pyogenes) was > 16 µg/mL.

`CC(=O)NC[C@H]1CN(c2ccc(N3CCN(Cc4ccc(C=O)o4)CC3)c(F)c2)C(=O)O1` was tested, and the MIC (Staphylococcus aureus [1]) was 1 µg/mL (≈ 2.25 µM), the ED50 (Staphylococcus aureus [3]) was > 25 mg/kg and the MIC (Enterococcus faecalis) was 8 µg/mL (≈ 18 µM). For the same compound, the MIC (Streptococcus pneumoniae) was 4 µg/mL (≈ 9 µM), the MIC (Enterococcus faecium) was 8 µg/mL (≈ 18 µM) and the MIC (Staphylococcus aureus [2]) was 1 µg/mL (≈ 2.25 µM). It also gave an MIC (Streptococcus pyogenes) of 8 µg/mL (≈ 18 µM).

`CC(=O)NC[C@H]1CN(c2ccc(N3CCC(N(C)c4ccc([N+](=O)[O-])o4)CC3)c(F)c2)C(=O)O1` showed an MIC (Staphylococcus aureus [1]) of 1 µg/mL (≈ 2.1 µM), an ED50 (Staphylococcus aureus [3]) of 7.43 mg/kg and an MIC (Enterococcus faecalis) of 0.25 µg/mL (≈ 0.526 µM). The MIC (Streptococcus pneumoniae) was 0.5 µg/mL (≈ 1.05 µM), the MIC (Enterococcus faecium) was 0.5 µg/mL (≈ 1.05 µM) and the MIC (Staphylococcus aureus [2]) was 0.5 µg/mL (≈ 1.05 µM). For the same compound, the MIC (Streptococcus pyogenes) was 0.125 µg/mL (≈ 0.263 µM).

With `CC(=O)NC[C@H]1CN(c2ccc(N3CCN(Cc4ccc([N+](=O)[O-])o4)CC3C)c(F)c2)C(=O)O1` (stereo partly specified) the MIC (Staphylococcus aureus [1]) was 4 µg/mL (≈ 8.41 µM), the MIC (Enterococcus faecalis) was 4 µg/mL (≈ 8.41 µM) and the MIC (Streptococcus pneumoniae) was 8 µg/mL (≈ 16.8 µM). For the same compound, the MIC (Enterococcus faecium) was 4 µg/mL (≈ 8.41 µM), the MIC (Staphylococcus aureus [2]) was 2 µg/mL (≈ 4.21 µM) and the MIC (Streptococcus pyogenes) was 4 µg/mL (≈ 8.41 µM).

`CC(=O)NC[C@H]1CN(c2ccc(N3CCN(Cc4ccc(/C=N/O)o4)CC3)c(F)c2)C(=O)O1` was tested, and the MIC (Staphylococcus aureus [1]) was 2 µg/mL (≈ 4.35 µM), the MIC (Enterococcus faecalis) was 16 µg/mL (≈ 34.8 µM) and the MIC (Streptococcus pneumoniae) was 8 µg/mL (≈ 17.4 µM). For the same compound, the MIC (Enterococcus faecium) was 8 µg/mL (≈ 17.4 µM), the MIC (Staphylococcus aureus [2]) was 2 µg/mL (≈ 4.35 µM) and the MIC (Streptococcus pyogenes) was 4 µg/mL (≈ 8.71 µM).

For `CC(=O)NC[C@H]1CN(c2ccc(N3CCCN(Cc4ccc([N+](=O)[O-])o4)CC3)c(F)c2)C(=O)O1.Cl`, the MIC (Staphylococcus aureus [1]) was 2 µg/mL, the ED50 (Staphylococcus aureus [3]) was > 25 mg/kg and the MIC (Enterococcus faecalis) was 2 µg/mL. It also gave an MIC (Streptococcus pneumoniae) of 1 µg/mL, an MIC (Enterococcus faecium) of 2 µg/mL and an MIC (Staphylococcus aureus [2]) of 1 µg/mL. For the same compound, the MIC (Streptococcus pyogenes) was 1 µg/mL.
